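Briefly, cells in 96-well plates were exposed to five compound concentrations for 48 h, and endpoints were estimated by linear interpolation. GI50 = concentration required for 50% inhibition of growth.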 Activity calls are given as the source filed them. Rule as the data show it: active = GI50 up to about 1.1 µM and inactive = higher. Residues, ends and D or L forms follow the SMILES beside them. Groups on a side chain read outwards from the residue. *: point of attachment. Cbz = O=C(OCc1ccccc1)*; Boc = CC(C)(C)OC(=O)*
Key:
Test in all cases: NCI anticancer screen, dose series, 48 h
SF-268 = system: SF-268
TK-10 = system: TK-10
A498 = system: A498
NCI/ADR-RES = system: NCI/ADR-RES
KM12 = system: KM12
UACC-62 = system: UACC-62
EKVX = system: EKVX
OVCAR-8 = system: OVCAR-8
BT-549 = system: BT-549
ACHN = system: ACHN
LOX IMVI = system: LOX IMVI
HT-29 = system: HT-29
HL-60 = system: HL-60
A549 = system: A549
MDA-N = system: MDA-N
786-0 = system: 786-0
SF-295 = system: SF-295
Malme-3M = system: Malme-3M
NCI-H226 = system: NCI-H226
MDA-MB-231 = system: MDA-MB-231

Measured: GI50

CCOC(=O)C1(C(=O)OCC)CN(CC)CN(c2ccccc2)C1
inactive: SF-268 69.2 µM | TK-10 19 µM | A498 > 100 µM | NCI/ADR-RES 45.6 µM | KM12 > 100 µM | UACC-62 26.5 µM | EKVX 17.6 µM | OVCAR-8 21.5 µM | BT-549 20.8 µM | ACHN 19.9 µM | LOX IMVI 91.2 µM | HT-29 17.8 µM | HL-60 22.2 µM | A549 22.2 µM | MDA-N 35.6 µM | 786-0 19.8 µM | SF-295 > 100 µM | Malme-3M 38.3 µM

O=C(Nn1c(-c2cccs2)nc2ccc(I)cc2c1=O)c1ccccc1
inactive: SF-268 34.4 µM | TK-10 30.3 µM | NCI/ADR-RES 31.8 µM | KM12 27.9 µM | UACC-62 20.6 µM | EKVX 27.8 µM | OVCAR-8 39 µM | BT-549 16.4 µM | NCI-H226 28.5 µM | ACHN 30.7 µM | LOX IMVI 21.4 µM | HT-29 29.8 µM | A549 18.8 µM | MDA-N 43.9 µM | 786-0 43.2 µM | SF-295 26.9 µM

CCN(CC)CCN(C(=O)C(C)(C)C)c1ccccc1N
inactive: SF-268 > 100 µM | TK-10 > 100 µM | NCI/ADR-RES > 100 µM | KM12 > 100 µM | UACC-62 > 100 µM | EKVX > 100 µM | OVCAR-8 > 100 µM | BT-549 > 100 µM | NCI-H226 > 100 µM | ACHN > 100 µM | HT-29 > 100 µM | HL-60 > 100 µM | A549 > 100 µM | MDA-N > 100 µM | 786-0 > 100 µM | SF-295 > 100 µM | Malme-3M > 100 µM

CC(C)CC(NC(=O)OCc1ccccc1)C(=O)NCCCCC(NC(=O)C(CCCCNC(=O)C(CC(C)C)NC(=O)OCc1ccccc1)NC(=O)C(CCCCNC(=O)C(CC(C)C)NC(=O)OCc1ccccc1)NC(=O)C(CCCCNC(=O)C(CC(C)C)NC(=O)OCc1ccccc1)NC(=O)OC(C)(C)C)C(=O)O (stereo not given) (Boc-K([Leu-Cbz])K([Leu-Cbz])K([Leu-Cbz])K([Leu-Cbz])-OH; configuration not given here)
inactive: SF-268 > 25 µM | TK-10 > 25 µM | A498 > 25 µM | UACC-62 > 25 µM | OVCAR-8 > 25 µM | BT-549 > 25 µM | NCI-H226 > 25 µM | ACHN > 25 µM | LOX IMVI > 25 µM | HT-29 > 25 µM | HL-60 > 25 µM | A549 > 25 µM | MDA-MB-231 > 25 µM | MDA-N > 25 µM | 786-0 > 25 µM | Malme-3M > 25 µM

CCOC(=O)[C@@H]1C[C@@H]1c1ccc(O)c(O)c1
inactive: SF-268 30.8 µM | TK-10 > 100 µM | NCI/ADR-RES 46.6 µM | KM12 26 µM | UACC-62 13.4 µM | EKVX 38.6 µM | OVCAR-8 21.8 µM | BT-549 19.7 µM | NCI-H226 22.5 µM | ACHN 42.8 µM | HT-29 50.2 µM | A549 29.4 µM | MDA-MB-231 11 µM | MDA-N 17.1 µM | 786-0 16.1 µM | SF-295 59.7 µM | Malme-3M 49.2 µM

COc1ccc(C2C(C#N)=C(S)N(C3OC(COC(C)=O)C(OC(C)=O)C(OC(C)=O)C3OC(C)=O)C(C)=C2C(C)=O)cc1 (stereo not given)
inactive: SF-268 > 100 µM | TK-10 > 100 µM | NCI/ADR-RES > 100 µM | KM12 > 100 µM | UACC-62 57.5 µM | BT-549 52.4 µM | ACHN 77.1 µM | LOX IMVI > 100 µM | HT-29 71.3 µM | HL-60 46.3 µM | A549 70.6 µM | MDA-MB-231 > 100 µM | MDA-N 46.1 µM | 786-0 > 100 µM | SF-295 > 100 µM | Malme-3M > 100 µM

Reference: ChEMBL document CHEMBL1201862, “PubChem BioAssay data set” (2004)
